In paper PMC12040169 (PLOS Biology, 2025) one finds viability data, which are given here for 56 compounds.

A short description of the series: in vitro. As to conditions: human, hela cells, % viability.

With `O=S(=O)(Nc1ccc2ncccc2c1)c1ccc(OC(F)(F)F)cc1` [CBK045339], the viability at 28.5 h, 10 µM turned out to be 99.7%. As to `CCN(C)S(=O)(=O)c1ccc(Cl)c(Cl)c1` [CBK045392], the viability at 28.5 h, 10 µM came out at 113%. With `CN(CCC#N)S(=O)(=O)c1ccc(Cl)c(Cl)c1` [CBK045396], the viability at 28.5 h, 10 µM was found to be 91.8%. As for `O=C(Nc1ccc(F)cc1)c1ccccc1NS(=O)(=O)c1cc(Br)c(Cl)s1` [CBK045405], the viability at 28.5 h, 10 µM came out at 92.8%. Turning to `CCN(CC)C(=O)c1ccccc1NS(=O)(=O)c1ccc(F)cc1` [CBK045414], the viability at 28.5 h, 10 µM was determined as 87.7%.

For the compound `CCN(CC)C(=O)c1ccccc1NS(=O)(=O)c1ccc(C)cc1` [CBK045416], the viability at 28.5 h, 10 µM came to 88.7%. `CCN(CC)C(=O)c1ccccc1NS(=O)(=O)c1ccc(OC)c(OC)c1` [CBK045423]: the viability at 28.5 h, 10 µM stood at 92.6%. As for `CCN(CC)C(=O)c1ccccc1NS(=O)(=O)c1cc(Br)c(Cl)s1` [CBK045424], the figure is 91.3%; as for `CCN(CC)C(=O)c1ccccc1NS(=O)(=O)Cc1ccccc1[N+](=O)[O-]` [CBK045428], 99.9%.

In the case of `O=C(Nc1ccc(F)cc1)c1ccccc1NS(=O)(=O)c1ccc(Br)cc1` [CBK045438], the viability at 28.5 h, 10 µM came to 100%. As to `CCOC(=O)c1ccccc1NS(=O)(=O)c1cc(Cl)sc1Cl` [CBK045448], the viability at 28.5 h, 10 µM is 85.8%. Then `CCOC(=O)c1ccccc1NS(=O)(=O)c1ccc(C)c([N+](=O)[O-])c1` [CBK045451], with 88.7%; and `CCOC(=O)N1CCC(NS(=O)(=O)c2cccc3cccnc23)CC1` [CBK045453], with 90.6%; and `CCOC(=O)N1CCC(NS(=O)(=O)/C=C/c2ccccc2)CC1` [CBK045458], with 107%. In the case of `CCOC(=O)N1CCC(NS(=O)(=O)c2c(C)noc2C)CC1` [CBK045465], the viability at 28.5 h, 10 µM turned out to be 102%. Turning to `CCOC(=O)N1CCC(NS(=O)(=O)c2cc(Br)c(Cl)s2)CC1` [CBK045472], the viability at 28.5 h, 10 µM came out at 95.8%. For `CCc1nnc(NS(=O)(=O)c2ccc(NC(=O)c3ccc([N+](=O)[O-])cc3)cc2)s1` [CBK045483], the viability at 28.5 h, 10 µM was 95.4%.

With `CCc1nnc(NS(=O)(=O)c2ccc(NC(=O)c3ccc(Cl)cc3Cl)cc2)s1` [CBK045493], the viability at 28.5 h, 10 µM was 88.5%. As for `CCc1nnc(NS(=O)(=O)c2ccc(NC(=O)c3ccccc3[N+](=O)[O-])cc2)s1` [CBK045494], the figure is 94.2%. `Cc1cc(C)c(S(=O)(=O)Nc2nnc(C)s2)c(C)c1` [CBK045497]: the viability at 28.5 h, 10 µM turned out to be 87.5%. On to `Cc1cc(C)c(S(=O)(=O)Nc2nnc(C(F)(F)F)s2)c(C)c1` [CBK045507], for which the viability at 28.5 h, 10 µM amounted to 99.7%. As to `COCc1nnc(NS(=O)(=O)c2ccc(C)cc2)s1` [CBK045523], the viability at 28.5 h, 10 µM amounted to 86.7%. For `CS(=O)(=O)Nc1nnc(SCC(=O)Nc2cccc([N+](=O)[O-])c2)s1` [CBK045536], the viability at 28.5 h, 10 µM worked out at 102%. Consider `Cc1nc(NS(=O)(=O)c2ccc3ccccc3c2)sc1C(=O)O` [CBK045548], for which the viability at 28.5 h, 10 µM turned out to be 105%. As for `Cc1nc(NS(=O)(=O)Cc2ccccc2)sc1C(=O)O` [CBK045552], the viability at 28.5 h, 10 µM was 110%.

Turning to `CCCc1ccc(S(=O)(=O)Nc2nc(C)c(C(=O)O)s2)cc1` [CBK045555], the viability at 28.5 h, 10 µM came to 88.3%. As to `COc1ccc(Br)cc1S(=O)(=O)Nc1nc(C)c(C(=O)O)s1` [CBK045558], the viability at 28.5 h, 10 µM was determined as 106%. As for `Cc1nc(NS(=O)(=O)c2cc(Br)c(Cl)s2)sc1C(=O)O` [CBK045560], the figure is 96%; as for `Cc1nc(NS(=O)(=O)c2c(C)noc2C)sc1C(=O)O` [CBK045562], 85.7%.

As for `Cc1nc(NS(=O)(=O)Cc2ccccc2[N+](=O)[O-])sc1C(=O)O` [CBK045564], the viability at 28.5 h, 10 µM is 89.5%. As for `Cc1nc(NS(=O)(=O)c2ccc(Oc3ccccc3)cc2)sc1C(=O)O` [CBK045566], the figure is 107%; as for `O=S(=O)(c1ccccc1C(F)(F)F)n1ccc2c(N3CCNCC3)nccc21` [CBK045605C], 99.5%. With `COc1cc(C2(O)CCN(Cc3ccccc3)C2)ccc1OCc1ccccc1` (centres unmarked) [CBK045620], the viability at 28.5 h, 10 µM was 95.9%. For `CN(C)CCOCc1ncccc1OCCOC1CCCCO1` (centres unmarked) [CBK045662], the viability at 28.5 h, 10 µM amounted to 93.1%.

For `COc1ccc([C@@]23CC[C@@H](NC(=O)N(C)c4ccc(C)cc4)C[C@@H]2N(C)CC3)cc1OC` [CBK045681T], the viability at 28.5 h, 10 µM amounted to 89.2%. In the case of `COc1ccc([C@@]23CC[C@@H](NC(=O)N(C)c4ccc(Cl)cc4)C[C@@H]2N(C)CC3)cc1OC` [CBK045682T], the viability at 28.5 h, 10 µM came out at 90.8%. As for `O=S(=O)(Cc1ccc(Br)cc1)c1cc2c(N3CCNCC3)nccc2s1` [CBK045688C], the figure is 87.4%; as for `O=S(=O)(Cc1cccc(F)c1F)c1cc2c(N3CCNCC3)nccc2s1` [CBK045690C], 89.1%; as for `COc1ccc([C@@]23CC[C@@H](NC(=O)Nc4ccnc5ccccc45)C[C@@H]2N(C)CC3)cc1OC` [CBK045699], 100%. `CCOC(=O)c1cc(-c2cccc(Cl)c2)oc1C` [CBK045775]: the viability at 28.5 h, 10 µM stood at 104%. In the case of `O=[N+]([O-])c1ccc(N2CCN(Cc3ccccc3)CC2)cc1NCc1ccccc1` [CBK045841], the viability at 28.5 h, 10 µM was 86.9%. Turning to `Oc1cccnc1N1CCN(Cc2ccccc2)CC1` [CBK045849], the viability at 28.5 h, 10 µM was determined as 104%. Then `Cc1cccc(-c2cc(C(=O)O)c(C)o2)c1` [CBK045855], with 87.7%; and `Cc1ccc(C(=O)N2CC(=O)N(CCO)C2)cc1` [CBK045864], with 110%. On to `CCCC(=O)Nc1c(F)cc(F)cc1OC1CCNCC1` [CBK045892T], for which the viability at 28.5 h, 10 µM was determined as 91.1%. With `CC(C(=O)Nc1c(F)cc(F)cc1OC1CCNCC1)c1ccccc1` (centres unmarked) [CBK045896T], the viability at 28.5 h, 10 µM stood at 103%. For the compound `O=C(CCOc1ccccc1)Nc1c(F)cc(F)cc1OC1CCNCC1` [CBK045897T], the viability at 28.5 h, 10 µM came out at 105%.

Take `O=c1c(N2CCN(CCOc3ccccc3)CC2)nccn1CCOc1cc(F)c(F)cc1F` [CBK045934C]: the viability at 28.5 h, 10 µM was found to be 103%. In the case of `CC(NC(=O)N(Cc1ccc(CN)cc1)Cc1ccc2ccccc2c1)c1cccc2ccccc12` (centres unmarked) [CBK046092C], the viability at 28.5 h, 10 µM is 90%. For `NCc1ccc(CN(Cc2ccc(-c3ccccc3)cc2)C(=O)Nc2c(F)cccc2F)cc1` [CBK046115C], the viability at 28.5 h, 10 µM turned out to be 104%. With `NCc1ccc(CN(Cc2ccc(-c3ccccc3)cc2)C(=O)Nc2ccccc2C(F)(F)F)cc1` [CBK046116C], the viability at 28.5 h, 10 µM was 86.3%. As to `CC(NC(=O)N(Cc1ccc(CN)cc1)Cc1cnc(-c2ccccc2)[nH]1)c1cccc2ccccc12` (centres unmarked) [CBK046149C], the viability at 28.5 h, 10 µM was 97.1%.

For `NCCN(Cc1cccc(Cl)c1)C(=O)NC(c1ccccc1)c1ccccc1` [CBK046203C], the viability at 28.5 h, 10 µM turned out to be 90.8%. Then `Cc1cccc(CN(CCN)C(=O)NC2C[C@H]2c2ccccc2)n1` (some centres unmarked) [CBK046220C], with 120%; and `Cc1cccc(CN(CCN)C(=O)Nc2ccc(C(C)(C)C)cc2)n1` [CBK046230C], with 96.4%. As to `CC(C)(C)c1ccc(NC(=O)N(CCN)Cc2c[nH]c(-c3ccccc3)n2)cc1` [CBK046297C], the viability at 28.5 h, 10 µM is 64.9%.

What is called viability is a read-out of living cells in per cent, often relative to untreated cells.
